The source of these data is article PMC6480153, “Discovery of Novel Triazole-Containing Pyrazole Ester Derivatives as Potential Antibacterial Agents” (Molecules, 2019).

In data set [1] the test system is Listeria monocytogenes (ATCC-15313). The data set can be described thus: MIC by agar-dilution method against Listeria monocytogenes. It counts as cell-based. The following applies: for MIC: read-out: MIC L.m. Here is the method:
(§1) In vitro antimicrobial activity of the prepared compounds against four bacteria was evaluated by the conventional agar-dilution method. Ciprofloxacin was selected as a reference standard.
(§2) The solid media Luria-Bertani (LB)-Broth-Agar-Medium (tryptone 10 g/L, yeast 5 g/L, NaCl 10 g/L, agar 15 g/L, and distilled water 1000 mL, adjusted to pH 7.4 was used for testing the antibacterial activity.
(§3) The in vitro antibacterial activity for synthesized compounds 4a–m were evaluated using the agar-dilution method. […] Drugs (10.0 mg) were dissolved in DMSO (1 mL) and the solution was diluted with water (9 mL). […] The bacterial inocula were prepared by suspending 24 h-old bacterial colonies from LB-Broth-Agar-Medium in 0.85% saline. The inocula were adjusted to 0.5 McFarland Standard ([…]). The suspensions were then diluted in 0.85% saline to give 10^7 CFU/mL. Petri dishes were spot-inoculated with 1 μL of each of the prepared bacterial suspensions (10^4 CFU/spot) and incubated at 37 °C for 24 h. […] A control test was also performed with test medium supplemented with DMSO at the same dilutions as used in the experiment in order to ensure that the solvent had no influence on bacterial growth.

For data set [2], the system named is Escherichia coli (ATCC-25922). As to the kind of experiment: MIC by agar-dilution method against Escherichia coli. The following applies: 24 h; for MIC E. c: 37 °C. Type of data set: cell-based. The method, then: as §1, §2, §3
The test system of data set [3] is Staphylococcus aureus (ATCC-12600). As to the kind of experiment: MIC by agar-dilution method against Staphylococcus aureus. Type of data set: cell-based. Conditions: for MIC: ATCC12600. The method, then: as §1, §2, §3
For data set [4], the system named is Salmonella gallinarum (ATCC-9184). As to the kind of experiment: MIC by agar-dilution method against Salmonella gallinarum. Type of data set: cell-based. Conditions: 24 h; for MIC: Salmonella enterica, read-out: MIC S.e. The method, then: as §1, §2, §3
The target of a further data set is T1, DNA gyrase (Escherichia coli, UniProt P0AES4+P0AES6).
T1 construct: First, the E. coli suspension is extracted to obtain a crude enzyme solution; endogenous in cells
As to the kind of experiment: DNA gyrase (topoisomerase II) supercoiling inhibition, gel electrophoresis. It counts as biochemical. The following applies: Topoisomerase II supercoiling activity; enzyme isolated from Escherichia coli. Here is the method:
(§4) In order to determine the relationship between compounds and antibacterial activity, the inhibitory activity of selected compounds (4d and 4k) against DNA gyrase and topoisomerase IV isolated from Escherichia coli was examined.
(§5) The in vitro antibacterial activity of the target compounds was carried out on by the methods of Sato et al. and Peng and Marians. First, the E. coli suspension is extracted to obtain a crude enzyme solution. After the purification step, the selected compounds are determined by gel electrophoresis to obtain data of different gradient concentrations, thereby calculating the IC50 values.

A further data set deals with T2, topoisomerase IV (Escherichia coli, UniProt P0AFI2+P20083).
T2 construct: First, the E. coli suspension is extracted to obtain a crude enzyme solution; endogenous in cells
As to the kind of experiment: Topoisomerase IV decatenation inhibition, gel electrophoresis. It counts as biochemical. The following applies: Topoisomerase IV decatenation activity, enzyme isolated from Escherichia coli. Here is the method: as §4, §5

Where [5] appears, read: Listeria monocytogenes ATCC-15313, agar dilution, 37 °C, 24 h.
Setting [6] is: Staphylococcus aureus ATCC-12600, agar dilution, 37 °C, 24 h.
Where [7] appears, read: Salmonella gallinarum ATCC-9184, agar dilution, 37 °C.

Values after ≈ are worked out from the molar mass of the structure shown. Where two headings read alike, the source gives them in different places. Some results are limits rather than exact numbers.

The term MIC denotes the lowest concentration found to suppress growth. One may read the IC50 as the midpoint of a concentration-inhibition curve. For orientation: melting point means the temperature of the solid-liquid transition.

T2 sequence (P20083 whole entry): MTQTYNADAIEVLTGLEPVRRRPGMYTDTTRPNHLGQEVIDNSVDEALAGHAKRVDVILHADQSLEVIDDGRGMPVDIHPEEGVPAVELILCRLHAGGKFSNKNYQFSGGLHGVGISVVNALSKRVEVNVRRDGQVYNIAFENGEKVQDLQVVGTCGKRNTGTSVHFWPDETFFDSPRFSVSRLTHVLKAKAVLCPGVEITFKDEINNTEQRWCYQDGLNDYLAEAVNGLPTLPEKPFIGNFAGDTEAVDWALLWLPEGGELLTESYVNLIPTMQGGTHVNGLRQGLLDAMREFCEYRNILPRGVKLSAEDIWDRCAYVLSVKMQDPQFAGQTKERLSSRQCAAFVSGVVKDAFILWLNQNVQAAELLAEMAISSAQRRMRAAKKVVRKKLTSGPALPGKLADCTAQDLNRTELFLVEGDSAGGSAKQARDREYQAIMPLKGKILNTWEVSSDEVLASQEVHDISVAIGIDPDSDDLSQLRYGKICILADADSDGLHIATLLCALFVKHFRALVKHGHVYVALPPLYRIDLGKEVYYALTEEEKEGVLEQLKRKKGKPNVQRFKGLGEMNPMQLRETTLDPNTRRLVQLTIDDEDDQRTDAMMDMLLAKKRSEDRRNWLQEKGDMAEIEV
T2 sequence (P0AFI2 whole entry): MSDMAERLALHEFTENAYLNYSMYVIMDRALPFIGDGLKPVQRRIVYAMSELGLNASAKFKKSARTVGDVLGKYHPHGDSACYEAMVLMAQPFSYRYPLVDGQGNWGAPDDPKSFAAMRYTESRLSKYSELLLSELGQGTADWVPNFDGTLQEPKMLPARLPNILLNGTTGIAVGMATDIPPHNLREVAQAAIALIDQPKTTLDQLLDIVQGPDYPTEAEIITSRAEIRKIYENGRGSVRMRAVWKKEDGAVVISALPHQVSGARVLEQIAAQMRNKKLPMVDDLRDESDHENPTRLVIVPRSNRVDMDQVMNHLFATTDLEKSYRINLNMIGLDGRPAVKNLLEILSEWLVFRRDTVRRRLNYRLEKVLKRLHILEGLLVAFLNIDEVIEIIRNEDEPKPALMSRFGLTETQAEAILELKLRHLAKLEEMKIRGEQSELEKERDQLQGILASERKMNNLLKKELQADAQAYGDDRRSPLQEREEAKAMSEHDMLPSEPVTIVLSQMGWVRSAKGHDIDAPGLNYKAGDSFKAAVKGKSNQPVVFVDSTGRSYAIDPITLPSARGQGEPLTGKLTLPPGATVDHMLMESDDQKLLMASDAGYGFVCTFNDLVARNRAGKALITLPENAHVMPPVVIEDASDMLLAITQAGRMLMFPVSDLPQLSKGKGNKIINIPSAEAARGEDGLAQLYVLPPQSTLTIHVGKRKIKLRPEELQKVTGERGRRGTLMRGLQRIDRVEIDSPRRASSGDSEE
T1 sequence (P0AES4 whole entry, one chain of several): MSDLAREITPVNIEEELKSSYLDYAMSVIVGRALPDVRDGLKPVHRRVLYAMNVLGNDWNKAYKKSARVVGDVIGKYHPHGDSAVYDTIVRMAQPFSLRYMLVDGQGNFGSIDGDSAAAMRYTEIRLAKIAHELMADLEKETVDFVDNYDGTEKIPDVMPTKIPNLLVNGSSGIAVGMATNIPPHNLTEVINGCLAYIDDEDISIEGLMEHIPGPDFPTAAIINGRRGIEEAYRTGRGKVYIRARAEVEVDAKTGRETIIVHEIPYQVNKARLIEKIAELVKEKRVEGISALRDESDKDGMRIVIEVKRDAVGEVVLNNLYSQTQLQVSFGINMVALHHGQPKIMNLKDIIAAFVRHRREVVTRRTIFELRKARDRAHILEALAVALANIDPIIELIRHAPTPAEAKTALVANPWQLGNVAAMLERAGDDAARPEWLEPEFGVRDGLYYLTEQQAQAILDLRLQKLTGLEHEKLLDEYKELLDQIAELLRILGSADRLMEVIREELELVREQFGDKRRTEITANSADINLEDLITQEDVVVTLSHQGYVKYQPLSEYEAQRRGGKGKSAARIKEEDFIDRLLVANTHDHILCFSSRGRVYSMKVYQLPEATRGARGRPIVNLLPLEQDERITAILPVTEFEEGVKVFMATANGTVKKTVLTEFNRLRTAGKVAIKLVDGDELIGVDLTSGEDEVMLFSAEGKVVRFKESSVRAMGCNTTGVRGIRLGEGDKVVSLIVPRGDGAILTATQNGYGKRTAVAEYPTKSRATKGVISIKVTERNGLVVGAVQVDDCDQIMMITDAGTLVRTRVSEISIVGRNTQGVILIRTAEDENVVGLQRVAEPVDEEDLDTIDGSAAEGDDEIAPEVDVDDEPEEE

Turning to `Cc1nn(-c2ccc(Cl)cc2)c(Cl)c1C(=O)Oc1ncn(-c2ccccc2)n1` [Compound 4c, 1-phenyl-1H-1,2,4-triazol-3-yl5-chloro-1-(4-chlorophenyl)-3-methyl-1H-pyrazole-4-carboxylate], the “MIC L.m” value in data set [1] (setting [5]) was above 128 µg/mL. In data set [2], the “MIC E. c” value was determined as 64 µg/mL (≈ 154 µM). Further, the “MIC S.a” value in data set [3] (setting [6]) stood at 64 µg/mL (≈ 154 µM). In addition, the “MIC S.e” value in data set [4] (setting [7]) is 64 µg/mL (≈ 154 µM).
Consider `Cc1nn(-c2ccc(F)cc2)c(Cl)c1C(=O)Oc1ncn(-c2ccc(F)cc2)n1` [Compound 4f, 1-(4-fluorophenyl)-1H-1,2,4-triazol-3-yl5-chloro-1-(4-fluorophenyl)-3-methyl-1H-pyrazole-4-carboxylate], for which the “MIC L.m” value in data set [1] (setting [5]) was above 128 µg/mL. For the same compound, the “MIC E. c” value in data set [2] is above 128 µg/mL. In data set [3] (setting [6]), the “MIC S.a” value was above 128 µg/mL. The “MIC S.e” value in data set [4] (setting [7]) is above 128 µg/mL.
Consider `Cc1nn(-c2ccc(Cl)cc2)c(Cl)c1C(=O)Oc1ncn(-c2ccc(F)cc2)n1` [Compound 4g, 1-(4-fluorophenyl)-1H-1,2,4-triazol-3-yl5-chloro-1-(4-chlorophenyl)-3-methyl-1H-pyrazole-4-carboxylate], for which the “MIC L.m” value in data set [1] (setting [5]) was 64 µg/mL (≈ 148 µM). Besides, in data set [2], the “MIC E. c” value was determined as 64 µg/mL (≈ 148 µM). In addition, the “MIC S.a” value in data set [3] (setting [6]) was 64 µg/mL (≈ 148 µM). Moreover, in data set [4] (setting [7]), the “MIC S.e” value is reported as 64 µg/mL (≈ 148 µM).
For `Cc1nn(-c2ccc(F)cc2)c(Cl)c1C(=O)Oc1ncn(-c2ccccc2)n1` [Compound 4b, 1-phenyl-1H-1,2,4-triazol-3-yl5-chloro-1-(4-fluorophenyl)-3-methyl-1H-pyrazole-4-carboxylate], the “MIC L.m” value in data set [1] (setting [5]) is reported as above 128 µg/mL. Also, the “MIC E. c” value in data set [2] is recorded as 64 µg/mL (≈ 161 µM). In addition, the “MIC S.a” value in data set [3] (setting [6]) was above 128 µg/mL. Also, the “MIC S.e” value in data set [4] (setting [7]) came to 64 µg/mL (≈ 161 µM).
Consider `Cc1ccc(-n2nc(C)c(C(=O)Oc3ncn(-c4ccc(F)cc4)n3)c2Cl)cc1` [Compound 4h, 1-(4-fluorophenyl)-1H-1,2,4-triazol-3-yl5-chloro-3-methyl-1-(p-tolyl)-1H-pyrazole-4-carboxylate], for which, in data set [1] (setting [5]), the “MIC L.m” value is reported as 16 µg/mL (≈ 38.9 µM). For the same compound, in data set [2], the “MIC E. c” value was 32 µg/mL (≈ 77.7 µM). Further, the “MIC S.a” value in data set [3] (setting [6]) is recorded as 8 µg/mL (≈ 19.4 µM). Also, the “MIC S.e” value in data set [4] (setting [7]) was determined as 32 µg/mL (≈ 77.7 µM).
Regarding `Cc1nn(-c2ccc(Cl)cc2)c(Cl)c1C(=O)Oc1ncn(-c2ccc(Cl)cc2)n1` [Compound 4j, 1-(4-chlorophenyl)-1H-1,2,4-triazol-3-yl5-chloro-1-(4-chlorophenyl)-3-methyl-1H-pyrazole-4-carboxylate], in data set [1] (setting [5]), the “MIC L.m” value amounted to 64 µg/mL (≈ 143 µM). In data set [2], the “MIC E. c” value was 64 µg/mL (≈ 143 µM). For the same compound, in data set [3] (setting [6]), the “MIC S.a” value was found to be 64 µg/mL (≈ 143 µM). Also, the “MIC S.e” value in data set [4] (setting [7]) is 32 µg/mL (≈ 71.3 µM).
As to `Cc1ccc(-n2cnc(OC(=O)c3c(C)nn(-c4ccccc4)c3Cl)n2)cc1` [Compound 4k, 1-(p-tolyl)-1H-1,2,4-triazol-3-yl-5-chloro-3-methyl-1-phenyl-1H-pyrazole-4-carboxylate], in data set [1] (setting [5]), the “MIC L.m” value turned out to be 8 µg/mL (≈ 20.3 µM). The “IC50 Gyrase” value against DNA gyrase came out at 25.7 µg/mL (≈ 65.3 µM). In addition, in data set [2], the “MIC E. c” value is 4 µg/mL (≈ 10.2 µM). The “MIC S.a” value in data set [3] (setting [6]) worked out at 4 µg/mL (≈ 10.2 µM). Also, the “MIC S.e” value in data set [4] (setting [7]) came out at 4 µg/mL (≈ 10.2 µM). In addition, on topoisomerase IV, the “IC50 Topo IV” value worked out at 33.1 µg/mL (≈ 84 µM).
Take `Cc1ccc(-n2cnc(OC(=O)c3c(C)nn(-c4ccc(F)cc4)c3Cl)n2)cc1` [Compound 4l, 1-(p-tolyl)-1H-1,2,4-triazol-3-yl5-chloro-1-(4-fluorophenyl)-3-methyl-1H-pyrazole-4-carboxylate]: the “MIC L.m” value in data set [1] (setting [5]) was 64 µg/mL (≈ 155 µM). Moreover, in data set [2], the “MIC E. c” value was 32 µg/mL (≈ 77.7 µM). Also, the “MIC S.a” value in data set [3] (setting [6]) is 32 µg/mL (≈ 77.7 µM). Further, the “MIC S.e” value in data set [4] (setting [7]) worked out at 32 µg/mL (≈ 77.7 µM).
For `Cc1ccc(-n2nc(C)c(C(=O)Oc3ncn(-c4ccccc4)n3)c2Cl)cc1` [Compound 4d, 1-phenyl-1H-1,2,4-triazol-3-yl5-chloro-3-methyl-1-(p-tolyl)-1H-pyrazole-4-carboxylate], the melting point lay within 154 to 156 °C. Besides, the minimum inhibitory concentration (MIC) in data set [1] (ATCC15313, Listeria monocytogenes ATCC-15313, agar dilution, 37 °C, 24 h) was 2 µg/mL (≈ 5.08 µM). This compound gave a 50% inhibitory concentration (IC50) against DNA gyrase of 34.3 µM. Further, in data set [2] (ATCC25922, 37 °C), 4 µg/mL (≈ 10.2 µM) was the least that counted as inhibitory (MIC). The MIC in data set [3] (Staphylococcus aureus ATCC-12600, agar dilution, 37 °C, 24 h, read-out: MIC S.a) was found to be 4 µg/mL (≈ 10.2 µM). The MIC in data set [3] (Staphylococcus aureus, range stated in text for three compounds, read-out: MIC against Staphylococcus aureus) lay in the range of 4 to 8 µg/mL (≈ 10.2 to 20.3 µM). Also, the MIC in data set [4] (setting [7]) came to 0.5 µg/mL (≈ 1.27 µM). Also, the IC50 on topoisomerase IV (read-out: IC50 Topo IV (converted)) was 61.4 µM.
Take `O=C(O)c1cn(C2CC2)c2cc(N3CCNCC3)c(F)cc2c1=O` [CIP, Ciprofloxacin, reference compound]: the MIC in data set [1] (Listeria monocytogenes, ATCC15313, 24 h) is 1 µg/mL (≈ 3.02 µM); in data set [4], 0.25 µg/mL (≈ 0.754 µM).
Consider `Cc1nn(-c2ccccc2)c(Cl)c1C(=O)Oc1ncn(-c2ccccc2)n1` [Compound 4a, 1-phenyl-1H-1,2,4-triazol-3-yl5-chloro-3-methyl-1-phenyl-1H-pyrazole-4-carboxylate], for which the “MIC L.m” value in data set [1] (setting [5]) is given as 16 µg/mL (≈ 42.1 µM). In addition, in data set [2], the “MIC E. c” value amounted to 8 µg/mL (≈ 21.1 µM). For the same compound, the “MIC S.a” value in data set [3] (setting [6]) amounted to 16 µg/mL (≈ 42.1 µM). In addition, the “MIC S.e” value in data set [4] (setting [7]) was determined as 16 µg/mL (≈ 42.1 µM).
Consider `Cc1nn(-c2ccc(F)cc2)c(Cl)c1C(=O)Oc1ncn(-c2ccc(Cl)cc2)n1` [Compound 4i, 1-(4-chlorophenyl)-1H-1,2,4-triazol-3-yl5-chloro-1-(4-fluorophenyl)-3-methyl-1H-pyrazole-4-carboxylate], for which, in data set [1] (setting [5]), the “MIC L.m” value came out at 64 µg/mL (≈ 148 µM). The “MIC E. c” value in data set [2] is above 128 µg/mL. Besides, the “MIC S.a” value in data set [3] (setting [6]) is recorded as above 128 µg/mL. The “MIC S.e” value in data set [4] (setting [7]) is 64 µg/mL (≈ 148 µM).
`Cc1nn(-c2ccccc2)c(Cl)c1C(=O)Oc1ncn(-c2ccc(F)cc2)n1` [Compound 4e, 1-(4-fluorophenyl)-1H-1,2,4-triazol-3-yl5-chloro-3-methyl-1-phenyl-1H-pyrazole-4-carboxylate]: in data set [1] (setting [5]), the “MIC L.m” value worked out at 32 µg/mL (≈ 80.4 µM). Further, the “MIC E. c” value in data set [2] worked out at 32 µg/mL (≈ 80.4 µM). The “MIC S.a” value in data set [3] (setting [6]) was found to be 64 µg/mL (≈ 161 µM). In addition, the “MIC S.e” value in data set [4] (setting [7]) is 32 µg/mL (≈ 80.4 µM).
